SMILES strings stand for the structures.

Broadly, the melting point is the temperature of the solid-liquid transition.

As for `O=C(O)C(=O)CC(=O)c1ccccc1OCc1ccccc1`, the melting point was 136 to 138 °C.

The compound `O=C(O)C(=O)CC(=O)c1cccc(OCc2ccc(F)cc2)c1` came in with a melting point of 157 to 158 °C.

In the case of `O=C(O)C(=O)CC(=O)c1ccc2ccn(Cc3ccc(F)cc3)c2c1`, the melting point was 173 to 174 °C.

On to `O=C(O)C(=O)CC(=O)c1cccc2c1ccn2Cc1ccc(F)cc1`, for which the melting point was in the range of 156 to 157 °C.

Turning to `O=C(O)C(=O)CC(=O)c1cccc(OCc2ccc(F)c(F)c2)c1`, the melting point was 181 to 182 °C.

`COCCOc1c(OC)cc(Cc2ccccc2)cc1C(=O)CC(=O)C(=O)O`: the melting point lay in the range of 83 to 85 °C.

Turning to `COc1cc(OCc2ccccc2)cc(C(=O)CC(=O)C(=O)O)c1`, the melting point lay within 101 to 102 °C.

Compound `COc1cc(Cc2ccccc2)cc(C(=O)CC(=O)C(=O)O)c1OCCSC` showed a melting point of 99 to 100 °C.

Compound `O=C(O)C(=O)CC(=O)c1cc(Cc2ccccc2)cc2c1OCCO2` registered a melting point of 154 to 155 °C.

Compound `C=CCCCc1cc(OC)c(OC)c(C(=O)CC(=O)C(=O)O)c1` had a melting point of 75 to 76 °C.

As to `COc1cc(CC2CC2)cc(C(=O)CC(=O)C(=O)O)c1OC`, the melting point lay within 101 to 103 °C.

`O=C(O)C(=O)CC(=O)c1cc(Cc2ccccc2)cc2c1OCC(O)CO2` (racemic) registered a melting point of 182 to 183 °C.

These data come from patent US6380249B1 (dated 2002).
